According to patent US8088761B2, “Enzyme inhibitors” (Cancer Research Technology Limited, priority 2005, dated 2012):

Assays:
Aurora-A = target: T1, Aurora-A (Homo sapiens, UniProt O14965); experiment: Flashplate Aurora A enzyme inhibition assay; type: biochemical; conditions: Flashplate assay; IC50 range; read-out: Aurora-A inhibition
T1 sequence (O14965 1-403): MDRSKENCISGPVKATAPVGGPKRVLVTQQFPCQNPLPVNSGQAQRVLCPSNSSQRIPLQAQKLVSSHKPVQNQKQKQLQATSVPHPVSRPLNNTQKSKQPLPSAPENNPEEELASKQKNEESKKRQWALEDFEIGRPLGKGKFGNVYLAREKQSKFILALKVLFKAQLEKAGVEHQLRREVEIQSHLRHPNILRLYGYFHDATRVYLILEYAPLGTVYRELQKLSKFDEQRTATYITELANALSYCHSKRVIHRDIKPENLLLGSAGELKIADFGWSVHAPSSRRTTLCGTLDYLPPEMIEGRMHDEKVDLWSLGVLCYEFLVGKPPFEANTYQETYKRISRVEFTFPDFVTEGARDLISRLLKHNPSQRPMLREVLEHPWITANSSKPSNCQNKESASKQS
Outline: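 This is a radiometric Flashplate format: plates were precoated with DTT, and compound (in 2% DMSO) was mixed with kinase buffer (pH 7.5 Tris, MgCl2, NaCl) containing 1 mM MBP, 20 μM ATP and ^33P-ATP. The reaction was started with 250 ng Aurora-A per well and incubated 2 h at RT. It was then stopped by 10 mM sodium pyrophosphate washing, and plates were scintillation-counted.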

HCT116 cells = experiment: Cell viability assay (MTT) in HCT116 cell line; type: cell-based; conditions: Homo sapiens, HCT-116, 72 hrs, IC50 range, read-out: HCT116 cell growth inhibition
Outline: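 MTT read-out (4 hrs, 37 °C, DMSO extraction) following 72 hrs of treatment with 0-50 μM Aurora inhibitor. HCT116 cells were plated a day earlier and tested in triplicate; IC50 derived from the curve.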

Row | IC50 (Aurora-A) [µM] | IC50 (HCT116 cells) [µM] | Compound
1 | < 0.5 | < 0.5 | Brc1cnc2[nH]c(-c3ccc(N4CCOCC4)cc3)nc2c1N1CCN(Cc2cccnc2)CC1 [Example 102, 4-(4-(6-Bromo-7-(4-(pyridin-3-ylmethyl)piperazin-1-yl)-3H-imidazo[4,5-b]pyridin-2-yl)phenyl)morpholine]
2 | < 0.5 | < 0.5 | Brc1cnc2[nH]c(-c3ccc(N4CCNCC4)cc3)nc2c1N1CCN(Cc2cccnc2)CC1 [Example 104, 6-Bromo-2-(4-(piperazin-1-yl)phenyl)-7-(4-(pyridin-3-ylmethyl)piperazin-1-yl)-3H-imidazo[4,5-b]pyridine]
3 | < 0.5 | 0.5 to 2 | CC(C)(C)OC(=O)N1CCN(Cc2ccc(-c3nc4c(N5CCN(Cc6cccnc6)CC5)c(Br)cnc4[nH]3)cc2)CC1 [Example 105, tert-Butyl 4-(4-(6-bromo-7-(4-(pyridin-3-ylmethyl)piperazin-1-yl)-3H-imidazo[4,5-b]pyridin-2-yl)benzyl)piperazine-1-carboxylate]
4 | < 0.5 | 0.5 to 2 | Brc1cnc2[nH]c(-c3ccc(Cn4cccn4)cc3)nc2c1N1CCN(Cc2cccnc2)CC1 [Example 107, 2-(4-((1H-Pyrazol-1-yl)methyl)phenyl)-6-bromo-7-(4-(pyridin-3-ylmethyl)piperazin-1-yl)-3H-imidazo[4,5-b]pyridine]
5 | < 0.5 | 0.5 to 2 | Brc1cnc2[nH]c(-c3ccc(-n4cccn4)cc3)nc2c1N1CCN(Cc2cccnc2)CC1 [Example 108, 2-(4-(1H-pyrazol-1-yl)phenyl)-6-bromo-7-(4-(pyridin-3-ylmethyl)piperazin-1-yl)-3H-imidazo[4,5-b]pyridine]
6 | < 0.5 | 0.5 to 2 | Brc1cnc2[nH]c(-c3ccc(-n4ccnc4)cc3)nc2c1N1CCN(Cc2cccnc2)CC1 [Example 109, 2-(4-(1H-Imidazol-1-yl)phenyl)-6-bromo-7-(4-(pyridin-3-ylmethyl)piperazin-1-yl)-3H-imidazo[4,5-b]pyridine]
7 | < 0.5 | 0.5 to 2 | Brc1cnc2[nH]c(-c3ccc(Cn4ccnc4)cc3)nc2c1N1CCN(Cc2cccnc2)CC1 [Example 110, 2-(4-((1H-Imidazol-1-yl)methyl)phenyl)-6-bromo-7-(4-(pyridin-3-ylmethyl)piperazin-1-yl)-3H-imidazo[4,5-b]pyridine]
8 | < 0.5 | < 0.5 | CN(C)CCOc1ccc(-c2nc3c(N4CCN(Cc5cccnc5)CC4)c(Br)cnc3[nH]2)cc1 [Example 111, 2-(4-(6-Bromo-7-(4-(pyridin-3-ylmethyl)piperazin-1-yl)-3H-imidazo[4,5-b]pyridin-2-yl)phenoxy)-N,N-dimethylethanamine]
9 | < 0.5 | 0.5 to 2 | Brc1cnc2[nH]c(-c3ccc(OCCN4CCOCC4)cc3)nc2c1N1CCN(Cc2cccnc2)CC1 [Example 112, 4-(2-(4-(6-Bromo-7-(4-(pyridin-3-ylmethyl)piperazin-1-yl)-3H-imidazo[4,5-b]pyridin-2-yl)phenoxy)ethyl)morpholine]
10 | < 0.5 | < 0.5 | Brc1cnc2[nH]c(-c3ccc(OC4CCNCC4)cc3)nc2c1N1CCN(Cc2cccnc2)CC1 [Example 113, 6-Bromo-2-(4-(piperidin-4-yloxy)phenyl)-7-(4-(pyridin-3-ylmethyl)piperazin-1-yl)-3H-imidazo[4,5-b]pyridine]
11 | < 0.5 | < 0.5 | OC1CCN(c2ccc(-c3nc4c(N5CCN(Cc6cccnc6)CC5)c(Br)cnc4[nH]3)cc2)CC1 [Example 114, 1-(4-(6-Bromo-7-(4-(pyridin-3-ylmethyl)piperazin-1-yl)-3H-imidazo[4,5-b]pyridin-2-yl)phenyl)piperidin-4-ol]
12 | < 0.5 | 0.5 to 2 | O=S1(=O)CCN(c2ccc(-c3nc4c(N5CCN(Cc6cccnc6)CC5)c(Br)cnc4[nH]3)cc2)CC1 [Example 115, 4-(4-(6-Bromo-7-(4-(pyridin-3-ylmethyl)piperazin-1-yl)-3H-imidazo[4,5-b]pyridin-2-yl)phenyl)-1,1-dioxothiomorpholine]
13 | < 0.5 | 0.5 to 2 | COc1ccc(CN2CCN(c3c(Br)cnc4[nH]c(-c5ccc(CN6CCOCC6)cc5)nc34)CC2)cn1 [Example 117, 4-(4-(6-Bromo-7-(4-((6-methoxypyridin-3-yl)methyl)piperazin-1-yl)-3H-imidazo[4,5-b]pyridin-2-yl)benzyl)morpholine]
14 | < 0.5 | < 0.5 | COc1ccc(CN2CCN(c3c(Br)cnc4[nH]c(-c5ccc(N6CCOCC6)cc5)nc34)CC2)cn1 [Example 118, 4-(4-(6-Bromo-7-(4-((6-methoxypyridin-3-yl)methyl)piperazin-1-yl)-3H-imidazo[4,5-b]pyridin-2-yl)phenyl)morpholine]
15 | < 0.5 | 2 to 50 | Brc1cnc2[nH]c(-c3ccc(CN4CCOCC4)cc3)nc2c1N1CCN(Cc2cccc3c2OCO3)CC1 [Example 120, 4-(4-(7-(4-(Benzo[d][1,3]dioxol-4-ylmethyl)piperazin-1-yl)-6-bromo-3H-imidazo[4,5-b]pyridin-2-yl)benzyl)morpholine]
16 | < 0.5 | 0.5 to 2 | Brc1cnc2[nH]c(-c3ccc(N4CCOCC4)cc3)nc2c1N1CCN(Cc2cncnc2)CC1 [Example 123, 4-(4-(6-Bromo-7-(4-(pyrimidin-5-ylmethyl)piperazin-1-yl)-3H-imidazo[4,5-b]pyridin-2-yl)phenyl)morpholine]
17 | < 0.5 | < 0.5 | FC(F)(F)c1ccc(CN2CCN(c3c(Br)cnc4[nH]c(-c5ccc(CN6CCOCC6)cc5)nc34)CC2)cn1 [Example 125, 4-(4-(6-Bromo-7-(4-((6-(trifluoromethyl)pyridin-3-yl)methyl)piperazin-1-yl)-3H-imidazo[4,5-b]pyridin-2-yl)benzyl)morpholine]
18 | < 0.5 | < 0.5 | Cc1noc(C)c1CN1CCN(c2c(Br)cnc3[nH]c(-c4ccc(CN5CCOCC5)cc4)nc23)CC1 [Example 128, 4-(4-(6-Bromo-7-(4-((3,5-dimethylisoxazol-4-yl)methyl)piperazin-1-yl)-3H-imidazo[4,5-b]pyridin-2-yl)benzyl)morpholine]
19 | < 0.5 | < 0.5 | CC(c1ccncc1)N1CCN(c2c(Br)cnc3[nH]c(-c4ccc(CN5CCOCC5)cc4)nc23)CC1 (stereo not drawn) [Example 129, 4-(4-(6-Bromo-7-(4-(1-(pyridin-4-yl)ethyl)piperazin-1-yl)-3H-imidazo[4,5-b]pyridin-2-yl)benzyl)morpholine]
20 | < 0.5 | 0.5 to 2 | CC(c1ccncc1)N1CCN(c2c(Br)cnc3[nH]c(-c4ccc(N5CCOCC5)cc4)nc23)CC1 (stereo not drawn) [Example 130, 4-(4-(6-Bromo-7-(4-(1-(pyridin-4-yl)ethyl)piperazin-1-yl)-3H-imidazo[4,5-b]pyridin-2-yl)phenyl)morpholine]
21 | < 0.5 | < 0.5 | CC(c1ccncc1)N1CCN(c2c(Br)cnc3[nH]c(-c4ccc(OCCN(C)C)cc4)nc23)CC1 (stereo not drawn) [Example 131, 2-(4-(6-Bromo-7-(4-(1-(pyridin-4-yl)ethyl)piperazin-1-yl)-3H-imidazo[4,5-b]pyridin-2-yl)phenoxy)-N,N-dimethylethanamine]

Row | Compound | IC50 (Aurora-A) [µM] | IC50 (HCT116 cells) [µM]
22 | COc1ccc(-c2nc3c(N4CCN(Cc5ccc(OC)nc5)CC4)c(Br)cnc3[nH]2)cc1 [Example 116, 6-Bromo-2-(4-methoxyphenyl)-7-(4-((6-methoxypyridin-3-yl)methyl)piperazin-1-yl)-3H-imidazo[4,5-b]pyridine] | < 0.5 | 0.5 to 2
23 | COc1ccc(-c2nc3c(N4CCN(Cc5cccc6c5OCO6)CC4)c(Br)cnc3[nH]2)cc1 [Example 119, 7-(4-(Benzo[d][1,3]dioxol-4-ylmethyl)piperazin-1-yl)-6-bromo-2-(4-methoxyphenyl)-3H-imidazo[4,5-b]pyridine] | < 0.5 | < 0.5
24 | COc1ccc(-c2nc3c(N4CCN(Cc5cncnc5)CC4)c(Br)cnc3[nH]2)cc1 [Example 121, 6-Bromo-2-(4-methoxyphenyl)-7-(4-(pyrimidin-5-ylmethyl)piperazin-1-yl)-3H-imidazo[4,5-b]pyridine] | < 0.5 | < 0.5
25 | COc1ccc(-c2nc3c(N4CCN(Cc5ccc(C(F)(F)F)nc5)CC4)c(Br)cnc3[nH]2)cc1 [Example 124, 6-Bromo-2-(4-methoxyphenyl)-7-(4-((6-(trifluoromethyl)pyridin-3-yl)methyl)piperazin-1-yl)-3H-imidazo[4,5-b]pyridine] | < 0.5 | 0.5 to 2
26 | COc1ccc(-c2nc3c(N4CCN(Cc5c(C)noc5C)CC4)c(Br)cnc3[nH]2)cc1 [Example 127, 4-((4-(6-Bromo-2-(4-methoxyphenyl)-3H-imidazo[4,5-b]pyridin-7-yl)piperazin-1-yl)methyl)-3,5-dimethylisoxazole] | < 0.5 | 0.5 to 2
27 | CC(C)(C)OC(=O)NCc1ccc(-c2nc3c(N4CCC(Cc5ccccc5)CC4)c(Br)cnc3[nH]2)cc1 [Example 132, tert-Butyl 4-(7-(4-benzylpiperidin-1-yl)-6-bromo-3H-imidazo[4,5-b]pyridin-2-yl)benzylcarbamate] | < 0.5 | 2 to 50
